Patent US12215140B2, “Method of stabilizing protein contained in specimen and solution for stabilizing protein contained in specimen” (EIKEN KAGAKU KABUSHIKI KAISHA, priority 2018, dated 2025)

System: hemoglobin-haptoglobin complex
Test: Stability of hemoglobin (as hemoglobin-haptoglobin complex) in samples preserved at 37° C. in preservation solution containing 1 unit/L haptoglobin, Hb measured by latex agglutination method (Examples 1 to 7)
Parameters: species or system human
Conditions: for Hb concentration / Recovery ratio with respect to Hb concentration after 0 days: 37° C.
Procedure, shortened: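 Latex agglutination (anti-human hemoglobin rabbit polyclonal latex) measured Hb in samples stored at 37 °C up to 21 days; values expressed as % recovery versus day 0. Preservation solution: HEPES 40 mmol/L pH 6.8, BSA 0.1%, NaN3 0.1%, haptoglobin 1 unit/L, phenylboronic acid 0–100 mmol/L, optional sugars; ~300 µg/L Hb, 0.5% feces or none.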

[1] = Feces 1, sugar 50 mmol/L + phenylboronic acid 15 mmol/L, 0 days
[2] = Feces 1, sugar 50 mmol/L + phenylboronic acid 15 mmol/L, 7 days
[3] = Feces 1, sugar 50 mmol/L + phenylboronic acid 15 mmol/L, 14 days
[4] = Feces 1, sugar 50 mmol/L + phenylboronic acid 15 mmol/L, 21 days
[5] = Feces 1, sugar 100 mmol/L + phenylboronic acid 15 mmol/L, 0 days
[6] = Feces 1, sugar 100 mmol/L + phenylboronic acid 15 mmol/L, 7 days
[7] = Feces 1, sugar 100 mmol/L + phenylboronic acid 15 mmol/L, 14 days
[8] = Feces 1, sugar 100 mmol/L + phenylboronic acid 15 mmol/L, 21 days
[9] = Feces 1, sugar 100 mmol/L, no phenylboronic acid, 0 days
[10] = Feces 1, sugar 100 mmol/L, no phenylboronic acid, 7 days
[11] = Feces 1, sugar 100 mmol/L, no phenylboronic acid, 14 days
[12] = Feces 1, sugar 100 mmol/L, no phenylboronic acid, 21 days
[13] = Feces 2, sugar 50 mmol/L + phenylboronic acid 15 mmol/L, 0 days
[14] = Feces 2, sugar 50 mmol/L + phenylboronic acid 15 mmol/L, 7 days
[15] = Feces 2, sugar 50 mmol/L + phenylboronic acid 15 mmol/L, 14 days
[16] = Feces 2, sugar 50 mmol/L + phenylboronic acid 15 mmol/L, 21 days
[17] = Feces 2, sugar 100 mmol/L + phenylboronic acid 15 mmol/L, 0 days
[18] = Feces 2, sugar 100 mmol/L + phenylboronic acid 15 mmol/L, 7 days
[19] = Feces 2, sugar 100 mmol/L + phenylboronic acid 15 mmol/L, 14 days
[20] = Feces 2, sugar 100 mmol/L + phenylboronic acid 15 mmol/L, 21 days
[21] = Feces 2, sugar 100 mmol/L, no phenylboronic acid, 0 days
[22] = Feces 2, sugar 100 mmol/L, no phenylboronic acid, 7 days
[23] = Feces 2, sugar 100 mmol/L, no phenylboronic acid, 14 days
[24] = Feces 2, sugar 100 mmol/L, no phenylboronic acid, 21 days
[25] = Feces 3, sugar 50 mmol/L + phenylboronic acid 15 mmol/L, 0 days
[26] = Feces 3, sugar 50 mmol/L + phenylboronic acid 15 mmol/L, 7 days
[27] = Feces 3, sugar 50 mmol/L + phenylboronic acid 15 mmol/L, 14 days
[28] = Feces 3, sugar 50 mmol/L + phenylboronic acid 15 mmol/L, 21 days
[29] = Feces 3, sugar 100 mmol/L + phenylboronic acid 15 mmol/L, 0 days
[30] = Feces 3, sugar 100 mmol/L + phenylboronic acid 15 mmol/L, 7 days
[31] = Feces 3, sugar 100 mmol/L + phenylboronic acid 15 mmol/L, 14 days
[32] = Feces 3, sugar 100 mmol/L + phenylboronic acid 15 mmol/L, 21 days
[33] = Feces 3, sugar 100 mmol/L, no phenylboronic acid, 0 days
[34] = Feces 3, sugar 100 mmol/L, no phenylboronic acid, 7 days
[35] = Feces 3, sugar 100 mmol/L, no phenylboronic acid, 14 days
[36] = Feces 3, sugar 100 mmol/L, no phenylboronic acid, 21 days
[37] = No feces, sugar 50 mmol/L + phenylboronic acid 15 mmol/L, 0 days
[38] = No feces, sugar 50 mmol/L + phenylboronic acid 15 mmol/L, 7 days
[39] = No feces, sugar 50 mmol/L + phenylboronic acid 15 mmol/L, 14 days
[40] = No feces, sugar 50 mmol/L + phenylboronic acid 15 mmol/L, 21 days
[41] = No feces, sugar 100 mmol/L + phenylboronic acid 15 mmol/L, 0 days
[42] = No feces, sugar 100 mmol/L + phenylboronic acid 15 mmol/L, 7 days
[43] = No feces, sugar 100 mmol/L + phenylboronic acid 15 mmol/L, 14 days
[44] = No feces, sugar 100 mmol/L + phenylboronic acid 15 mmol/L, 21 days
[45] = No feces, sugar 100 mmol/L, no phenylboronic acid, 0 days
[46] = No feces, sugar 100 mmol/L, no phenylboronic acid, 7 days
[47] = No feces, sugar 100 mmol/L, no phenylboronic acid, 14 days
[48] = No feces, sugar 100 mmol/L, no phenylboronic acid, 21 days

Structure (SMILES): OC[C@H]1O[C@H](O[C@H]2O[C@H](CO)[C@@H](O)[C@H](O)[C@H]2O)[C@H](O)[C@@H](O)[C@@H]1O [Trehalose, trehalose]
- Hb concentration [1]: 299 µg/L
- Recovery ratio with respect to Hb concentration after 0 days [1]: 100%
- Hb concentration [2]: 261 µg/L
- Recovery ratio with respect to Hb concentration after 0 days [2]: 87%
- Hb concentration [3]: 247 µg/L
- Recovery ratio with respect to Hb concentration after 0 days [3]: 83%
- Hb concentration [4]: 241 µg/L
- Recovery ratio with respect to Hb concentration after 0 days [4]: 81%
- Hb concentration [5]: 291 µg/L
- Recovery ratio with respect to Hb concentration after 0 days [5]: 100%
- Hb concentration [6]: 249 µg/L
- Recovery ratio with respect to Hb concentration after 0 days [6]: 86%
- Hb concentration [7]: 238 µg/L
- Recovery ratio with respect to Hb concentration after 0 days [7]: 82%
- Hb concentration [8]: 230 µg/L
- Recovery ratio with respect to Hb concentration after 0 days [8]: 79%
- Hb concentration [9]: 266 µg/L
- Recovery ratio with respect to Hb concentration after 0 days [9]: 100%
- Hb concentration [10]: 121 µg/L
- Recovery ratio with respect to Hb concentration after 0 days [10]: 45%
- Hb concentration [11]: 80 µg/L
- Recovery ratio with respect to Hb concentration after 0 days [11]: 30%
- Hb concentration [12]: 44 µg/L
- Recovery ratio with respect to Hb concentration after 0 days [12]: 17%
- Hb concentration [13]: 284 µg/L
- Recovery ratio with respect to Hb concentration after 0 days [13]: 100%
- Hb concentration [14]: 257 µg/L
- Recovery ratio with respect to Hb concentration after 0 days [14]: 90%
- Hb concentration [15]: 223 µg/L
- Recovery ratio with respect to Hb concentration after 0 days [15]: 79%
- Hb concentration [16]: 201 µg/L
- Recovery ratio with respect to Hb concentration after 0 days [16]: 71%
- Hb concentration [17]: 269 µg/L
- Recovery ratio with respect to Hb concentration after 0 days [17]: 100%
- Hb concentration [18]: 251 µg/L
- Recovery ratio with respect to Hb concentration after 0 days [18]: 93%
- Hb concentration [19]: 227 µg/L
- Recovery ratio with respect to Hb concentration after 0 days [19]: 84%
- Hb concentration [20]: 206 µg/L
- Recovery ratio with respect to Hb concentration after 0 days [20]: 77%
- Hb concentration [21]: 264 µg/L
- Recovery ratio with respect to Hb concentration after 0 days [21]: 100%
- Hb concentration [22]: 106 µg/L
- Recovery ratio with respect to Hb concentration after 0 days [22]: 40%
- Hb concentration [23]: 61 µg/L
- Recovery ratio with respect to Hb concentration after 0 days [23]: 23%
- Hb concentration [24]: 41 µg/L
- Recovery ratio with respect to Hb concentration after 0 days [24]: 16%
- Hb concentration [25]: 282 µg/L
- Recovery ratio with respect to Hb concentration after 0 days [25]: 100%
- Hb concentration [26]: 221 µg/L
- Recovery ratio with respect to Hb concentration after 0 days [26]: 78%
- Hb concentration [27]: 197 µg/L
- Recovery ratio with respect to Hb concentration after 0 days [27]: 70%
- Hb concentration [28]: 178 µg/L
- Recovery ratio with respect to Hb concentration after 0 days [28]: 63%
- Hb concentration [29]: 281 µg/L
- Recovery ratio with respect to Hb concentration after 0 days [29]: 100%
- Hb concentration [30]: 213 µg/L
- Recovery ratio with respect to Hb concentration after 0 days [30]: 76%
- Hb concentration [31]: 192 µg/L
- Recovery ratio with respect to Hb concentration after 0 days [31]: 68%
- Hb concentration [32]: 179 µg/L
- Recovery ratio with respect to Hb concentration after 0 days [32]: 64%
- Hb concentration [33]: 267 µg/L
- Recovery ratio with respect to Hb concentration after 0 days [33]: 100%
- Hb concentration [34]: 91 µg/L
- Recovery ratio with respect to Hb concentration after 0 days [34]: 34%
- Hb concentration [35]: 56 µg/L
- Recovery ratio with respect to Hb concentration after 0 days [35]: 21%
- Hb concentration [36]: 47 µg/L
- Recovery ratio with respect to Hb concentration after 0 days [36]: 18%
- Hb concentration [37]: 268 µg/L
- Recovery ratio with respect to Hb concentration after 0 days [37]: 100%
- Hb concentration [38]: 253 µg/L
- Recovery ratio with respect to Hb concentration after 0 days [38]: 94%
- Hb concentration [39]: 255 µg/L
- Recovery ratio with respect to Hb concentration after 0 days [39]: 95%
- Hb concentration [40]: 257 µg/L
- Recovery ratio with respect to Hb concentration after 0 days [40]: 96%
- Hb concentration [41]: 269 µg/L
- Recovery ratio with respect to Hb concentration after 0 days [41]: 100%
- Hb concentration [42]: 248 µg/L
- Recovery ratio with respect to Hb concentration after 0 days [42]: 92%
- Hb concentration [43]: 251 µg/L
- Recovery ratio with respect to Hb concentration after 0 days [43]: 93%
- Hb concentration [44]: 251 µg/L
- Recovery ratio with respect to Hb concentration after 0 days [44]: 93%
- Hb concentration [45]: 243 µg/L
- Recovery ratio with respect to Hb concentration after 0 days [45]: 100%
- Hb concentration [46]: 229 µg/L
- Recovery ratio with respect to Hb concentration after 0 days [46]: 94%
- Hb concentration [47]: 225 µg/L
- Recovery ratio with respect to Hb concentration after 0 days [47]: 93%
- Hb concentration [48]: 222 µg/L
- Recovery ratio with respect to Hb concentration after 0 days [48]: 91%
- recovery ratio of hemoglobin in the samples containing fecal specimens (sugar 100 mmol/L, preservation solutions containing no phenylboronic acid): does not improve
- recovery ratios (sugar further added to phenylboronic acid 15 mmol/L, Feces 3): not improved
